“Also recorded” adds a separate entry of the source. Structures can show the parent of a compound that is named as a salt.
Key:
[1] = Particular toxicity in grouped mice; conditions: mouse, in vivo, ip
Description: The number of dead animals is noted after 1 hour, 2 hours, 3 hours, 4 hours and 24 hours.

[2] = test system: nigrostriatal dopaminergic system; test: Interaction with alpha-methyltyrosine on stereotypies (difference from amphetamine); conditions: α-methyltyrosine (catecholamine synthesis blocked)
mice [3] = test: Overall behavior and reactivities in mice; type: in vivo, mouse; conditions: dose not stated
Description: (§1) In the neuropsychopharmacological study which follows, a solution of CRL 41 153 in distilled water (pH 1.5) was administered intraperitoneally in a volume of 20 ml/kg to male mice and 5 ml/kg to male rats.
(§2) Groups of three animals are observed before and then 0.25 hour, 0.50 hour, 1 hour, 2 hours, 3 hours and 24 hours after the administration of CRL 41 153.

rats [4] = test: Overall behavior and reactivities in rats; type: in vivo, rat; conditions: dose not stated
Description: as §1, §2

mice [5] = test: Interaction with apomorphine in mice; type: in vivo, mouse; conditions: i.p.
Description: Groups of 6 mice receive CRL 41 153 0.5 hour before the subcutaneous injection of 1 or 16 mg/kg of apomorphine.

rats [6] = test: Interaction with apomorphine in rats; type: in vivo, rat; conditions: i.p.
Description: CRL 41 153 is administered to groups of 6 rats 0.5 hour before the subcutaneous injection of 0.5 mg/kg of apomorphine.

rats [7] = test: Interaction with amphetamine; type: in vivo, rat; conditions: i.p.
Description: Amphetamine (2 mg/kg) is injected intraperitoneally into groups of 6 rats 30 minutes after the administration of CRL 41 153. […] 4 mg/kg and 16 mg/kg, CRL 41 153 potentiates the intensity and duration of the stereotypies induced by amphetamine.

mice [8] = test: Interaction with reserpine; type: in vivo, mouse; conditions: i.p.
Description: Four hours after the intraperitoneal injection of 2.5 mg/kg of reserpine, groups of 6 mice receive CRL 41 153.

mice [9] = test: Interaction with oxotremorine; type: in vivo, mouse; conditions: i.p.
Description: CRL 41 153 is administered to groups of 6 mice 0.5 hour before the intraperitoneal injection of 0.5 mg/kg of oxotremorine.

mice [10] = test: Four plate test, traction and electric shock; type: in vivo, mouse; conditions: i.p.
Description: The test is performed on groups of 10 mice 30 minutes after the administration of CRL 41 153.

mice [11] = test: Spontaneous motility; type: in vivo, mouse; conditions: i.p.
Description: 0.5 hour after they have received CRL 41 153, the mice (6 per dose, 12 control animals) are placed in an actimeter, where their motility is recorded for 30 minutes.

mice [12] = test: Intergroup aggressiveness; type: in vivo, mouse; conditions: i.p.
Description: After they have stayed for 3 weeks in the two halves of a cage divided by an opaque partition, groups of 3 mice receive CRL 41 153. Half an hour later, the two groups from the same cage are brought together by removal of the partition, and the number of fights which occur in 10 minutes is noted.

mice [13] = test: Motility reduced by habituation to the enclosure; type: in vivo, mouse; conditions: i.p.
Description: After they have stayed In the actimeters for 18 hours, (he mice (6 per dose, 12 control animals) receive CRL 41 153. They are immediately returned to their respective enclosures and, half an hour later, their motility is recorded for 30 minutes.

mice [14] = test: Motility reduced by hypoxic aggression; type: in vivo, mouse; conditions: i.p.
Description: Half an hour after they have received CRL 41 153, the mice (10 per dose, 20 control animals) are subjected to acute hypobaric anoxia [pressure reduction of 600 mm Hg (i.e. about 8×10^4 Pa) in 90 seconds; release of vacuum in 45 seconds] and are then placed in an actimeter, where their motility is recorded for 10 minutes.

mice [15] = test: Asphyxiant anoxia (gallamine triiodoethylate); type: in vivo, mouse; conditions: i.p., curarizing agent
Description: Groups of 10 mice receive CRL 41 153 half an hour before the intraperitoneal administration of 32 mg/kg of gallamine triiodoethylate (reference curarizing agent).

mice [16] = test: Interaction with barbital; type: in vivo, mouse; conditions: i.p., barbital 220 mg/kg
Description: Half an hour after the administration of CRL 41 153, groups of 10 mice receive an intraperitoneal injection of barbital (220 mg/kg).

mice [17] = test: Behavioral despair; type: in vivo, mouse; conditions: forcibly immersed mice, i.p.
Description: Half an hour after they have received CRL 41 153, groups of 6 mice are placed in a beaker filled with water to a height of 6 cm. The total period of immobility between the 2nd and 6th minutes following immersion is noted.

dogs = test: Cardiovascular study in anesthetized dogs; type: in vivo, dog
Description: Two dogs (average weight: 14.1 kg), anesthetized with nembutal, receive CRL 41 194 by intraduodenal administration at successive doses of 0.1 mg/kg, 0.5 mg/kg, 1 mg/kg, 2.5 mg/kg, 5 mg/kg and 10 mg/kg (in solution in physiological solvent).
The blood pressure, the heart rate, the blood flow through the femoral artery, the blood flow through the vertebral artery and the rectal temperature are measured. The coloration of the skin and the coloration of the bile, collected by catheterization of the bile duct after ligature of the cystic duct, are observed.
4 dogs (average weight: 14 kg), anesthetized with nembutal, receive CRL 41 221 by intraduodenal administration at successive doses of 0.1 mg/kg, 0.5 mg/kg, 1 mg/kg, 2.5 mg/kg, 5 mg/kg and 10 mg/kg. The blood pressure, the heart rate, the blood flow through the femoral artery, the blood flow through the vertebral artery and the rectal temperature are measured. The coloration of the skin is observed.

[18] = test system: gravid White New Zealand female rabbits; test: Teratogenicity in gravid White New Zealand rabbits; type: in vivo, rabbit; conditions: day 5 to day 18 of gestation; for Affected foetuses, %: normal limit 1.5%
How it was run: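 Fetuses harvested by cesarean on gestation day 29 were scored for number and for any malformation (limb blockade, anury, tail or skull defects, exencephaly).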

[19] = pH of solutions in distilled water; type: physicochemical
Description: The neuropsychopharmacological study was undertaken according to the procedures described above for CRL 41 153, CRL 41 213 being adminstered intraperitoneally, in solution in distilled water, in a volume of 20 ml/kg to male mice and a volume of 5 ml/kg to male rats, and the pH of the injected solution varying with the concentration of CRL 41 213 according to the data given in Table II below.

CNS = test: Neuropsychopharmacological profile as a whole; type: in vivo, mice and rats; conditions: conclusion of the tests
Description: as §1

immunity = test: Immunological study (overall); conditions: in vivo; hydrochloride
[20] = anesthetized dogs, intraduodenal
[21] = dogs, after product, isoprenaline 3 μg/kg
[22] = dogs, after product, norepinephrine 2 μg/kg

CC(N)Cc1ccccc1 (stereo not shown) [amphetamine, reference compound]
selectivity ratio [1]: ~8 | Effect of alpha-methyltyrosine on the stereotypies induced by the substance [2]: totally inhibits the stereotypies induced by amphetamine; also recorded: totally inhibited

CC(C)NC(C)C(=O)c1ccc(N)c(Cl)c1 (stereo not shown) [CRL 41 221, 1-(4-amino-3-chlorophenyl)-2-isopropylaminopropanone hydrochloride]
Stereotype movements (summary) (mice [3]): the presence of stereotype movements in mice and rats | Overall behavior: observed effects (summary) (mice [3]; hydrochloride): excitation with hyperreactivity in mice and rats; also recorded: mydriasis and salivation in mice and rats | Stereotype movements (summary) (rats [4]): the presence of stereotype movements in mice and rats | Overall behavior: observed effects (summary) (rats [4]; hydrochloride): excitation with hyperreactivity in mice and rats; also recorded: mydriasis and salivation in mice and rats | Effect on hypothermia induced by apomorphine (mice [5]): antagonism of the hypothermia | Effect on stereotypies induced by apomorphine (rats [6]): potentiation of the stereotypies | Effect on stereotypies induced by amphetamine (rats [7]): potentiation of the stereotypies | Effect on hypothermia induced by reserpine (mice [8]): antagonism of the hypothermia | Effect on ptosis induced by reserpine (mice [8]): a decrease in the ptosis induced by reserpine | Effect on hypothermic action of oxotremorine (mice [9]): antagonism of the hypothermia | Effect on convulsant effects of electric shock (mice [10]): a reduction in the convulsant effects of electric shock | Number of punished passes in the four plate test (mice [10]): a moderate increase in the number of punished passes in the 4 plate test on mice (at a strong dose) | Spontaneous motor activity (mice [11]): an increase in the spontaneous motor activity of mice | Number of fights / intergroup aggressiveness (mice [12]): a reduction in the aggressiveness | Motor activity of mice accustomed to their enclosure (mice [13]): resumption in the motor activity of mice accustomed to their enclosure | Motor recovery of mice after hypobaric hypoxia (mice [14]): improvement in the motor recovery of mice subjected to acute hypoxia | Time taken for convulsions to occur (mice [15]): a reduction in the aggressiveness and (he time taken for convulsions and death to occur | Time taken for death to occur (mice [15]): a reduction in the aggressiveness and (he time taken for convulsions and death to occur | Duration of the sleep induced by barbital (mice [16]): a reduction in the duration of the sleep induced by barbital | Period of immobility due to despair (mice [17]): a reduction in the period of immobility of mice which have been forcibly immersed | Effect on hypertension induced by norepinephrine (dogs; anesthetized dogs): slightly reduced | Effects of isoprenaline on the blood pressure (dogs; anesthetized dogs): not modified as regards the diastolic blood pressure | Rectal temperature (dogs; anesthetized dogs): the rectal temperature and skin temperature rise gradually | Skin temperature (dogs; anesthetized dogs): the rectal temperature and skin temperature rise gradually | Effects of isoprenaline on the heart rate (dogs; anesthetized dogs, after accumulated dose of 19.1 mg/kg intraduodenal): slightly reduced as regards the heart rate | Blood pressure (dogs; [20]): A reduction in the diastolic blood pressure is observed at 5 mg/kg and hypotension appears at 10 mg/kg | Femoral flow (dogs; [20]): tachycardiac effect as from 2.5 mg/kg, that the femoral flow increases substantially as from this same dose | Heart rate (dogs; [20]): tachycardiac effect as from 2.5 mg/kg | Respiration (dogs; [20]): the respiration is stimulated | Vertebral flow (dogs; [20]): the vertebral flow increases at a dose of 0.5 mg/kg | Effect of propanolol or atenolol on the action of the product (dogs; anesthetized dogs, hydrochloride): The injection of atenolol into 2 dogs reduces the effects of CRL 41 221; also recorded: the injection of propanolol does not increase the β^- effects | Heart rate after isoprenaline (dogs; [21]): 262 beats/minute | Heart rate before isoprenaline (dogs; [21]): 212 beats/minute | Systolic blood pressure after norepinephrine (dogs; [22]): 266 mm Hg | Systolic blood pressure before norepinephrine (dogs; [22]): 158 mm Hg | Vasodilator (conclusion) (dogs; hydrochloride): vasodiating properties; also recorded: consequently a vasodilator | Affected foetuses, number ([18]; 5 mg/kg daily): 1 | Total foetuses (live) ([18]; 5 mg/kg daily): 91 | Affected foetuses, % ([18]; 5 mg/kg daily): 1.11% | Affected foetuses, number ([18]; 10 mg/kg daily): 1 | Total foetuses (live) ([18]; 10 mg/kg daily): 87 | Affected foetuses, % ([18]; 10 mg/kg daily): 1.14% | pH ([19]; 6 g/liter in distilled water): 5.0 | pH ([19]; 13 g/liter in distilled water): 4.5 | pH ([19]; 50 g/liter in distilled water): 4.0 | pH ([19]; ≤3 g/liter in distilled water): 5.5 | Antidepressant effects (overall) (CNS): antidepressant properties | Stimulant effects (overall) (CNS): large stimulant component | α-adrenergic stimulant effects (overall) (CNS): an α-adrenergic stimulation component | Immunological effect (overall) (immunity): immunostimulant or immunomodulating effects; also recorded: has an immunomodulating effect and increases the cellular immunity
